Test results taken from PubChem BioAssay (NCI).
Where “and” joins values, the source holds several entries; their conditions need not be identical. Identical values can stand only once.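 Compound exposure: 48 hours, 5 concentrations, 96-well plates. GI50 is the concentration that inhibits growth by half. The concentration for full growth arrest is given as TGI.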

How the values were obtained:
Assay in all cases: DTP human tumour cell line panel, 48 h
A549 NSCLC = system: A549 NSCLC
MOLT-4 leukemia = system: MOLT-4 leukemia
MDA-MB-435 = system: MDA-MB-435
HS 578T breast = system: HS 578T breast
LOX IMVI melanoma = system: LOX IMVI melanoma
ACHN renal = system: ACHN renal
UACC-62 melanoma = system: UACC-62 melanoma
HT29 colon = system: HT29 colon

| Structure (SMILES) | GI50 (A549 NSCLC) | TGI (A549 NSCLC) | GI50 (MOLT-4 leukemia) | TGI (MOLT-4 leukemia) | GI50 (MDA-MB-435) | TGI (MDA-MB-435) | GI50 (HS 578T breast) | TGI (HS 578T breast) | GI50 (LOX IMVI melanoma) | TGI (LOX IMVI melanoma) | GI50 (ACHN renal) | TGI (ACHN renal) | GI50 (UACC-62 melanoma) | TGI (UACC-62 melanoma) | GI50 (HT29 colon) | TGI (HT29 colon) |
| --- | --- | --- | --- | --- | --- | --- | --- | --- | --- | --- | --- | --- | --- | --- | --- | --- |
| CCCCCCCCCCCCNCCCc1ccccc1 | 1.78 µM | 3.35 µM | 2.04 µM | 4.5 µM | 1.73 µM | 3.17 µM | 1.66 µM | 3.72 µM | 1.77 µM | 3.24 µM | 1.8 µM | 3.5 µM | 1.76 µM | 3.29 µM | 1.75 µM | 3.21 µM |
| Cc1nc2sc(C(=O)Nc3cccc4c3OCCO4)c(N)c2cc1C(C)O (centres undefined) | 6.25 µM | > 100 µM | 4.97 µM | > 100 µM | 0.454 µM | 3.54 µM | 3.07 µM | > 100 µM | 5.26 µM | > 100 µM | 5.54 µM | > 100 µM | 2.97 µM | > 100 µM | 2.62 µM | > 100 µM |
| Nc1ccccc1SC(CC(=O)c1ccccc1)c1c(Cl)cccc1Cl (centres undefined) | 21.8 µM | 58.1 µM | 3 µM | 7.79 µM | 2.87 µM | 10.7 µM | 4.48 µM | 49.5 µM | 1.59 µM | 3.2 µM | 2.16 µM | 5.6 µM | – | – | 2.29 µM | 5.03 µM |
| COc1cccc(C2=C(c3cn(C)c4c(C)cccc34)C(=O)NC2=O)c1 | > 23.2 µM | > 25 µM | 16.3 µM | > 25 µM | 18.2 µM | > 25 µM | 5.93 µM | > 25 µM | > 25 µM | > 25 µM | 16.8 µM | > 25 µM | > 22.1 µM | > 25 µM | > 19.6 µM | > 25 µM |
| O=C1c2c[n+](Cc3ccccc3)ccc2-c2nc3ccccc3c3ccnc1c23 | 0.323 µM | 1.99 µM | 0.719 µM | 1.89 µM | 0.434 µM | 0.972 µM | 1.03 µM | 10.2 µM | 0.583 µM | 2.02 µM | 0.196 µM | 33.3 µM | 0.594 µM | 1.78 µM | 0.971 µM | 3.46 µM |
| Cc1cc(N)c2cc(NC(=O)/C=C\c3ccccc3Cl)ccc2n1 | 1.71 µM | 3.25 µM | 1.09 µM | 2.54 µM | 1.15 µM | 2.52 µM | 1.82 µM | 3.88 µM | 0.212 µM | 0.447 µM | 1.83 µM | 3.26 µM | 1.05 µM | 2.49 µM | 0.41 µM | 1.5 µM |
| O=C(N/N=C/c1coc2ccc(Cl)cc2c1=O)c1cc(O)c(O)c(O)c1 | 31.4 µM | > 100 µM | 13.7 µM | 61.6 µM | 27.2 µM | 66.7 µM | 18.3 µM | 73.3 µM | 22.5 µM | 56.6 µM | 22.1 µM | 52.5 µM | 19.8 µM | 40.1 µM | 63.8 µM | > 100 µM |
| COc1cc2c(cc1OCCCN1CCN(CCCOc3cc4c(cc3OC)C(=O)N3C[C@H](F)C[C@H]3C=N4)CC1)N=C[C@@H]1C[C@@H](F)CN1C2=O | – | – | < 0.018 µM | 1.68 µM | 0.105 µM | 0.288 µM | 0.0841 µM | 2.56 µM | 0.0176 µM | 0.145 µM | 0.102 µM | 0.945 µM | 0.0223 µM | 0.145 µM | 0.148 µM | > 37.2 µM |
| CCOC(=O)c1nc2sc(Cl)cn2c1/C=N/N=C(N)N | 26.9 µM | > 58.3 µM | 22.8 µM | > 100 µM | 25.3 µM | > 58.2 µM | 19.1 µM | 74.5 µM | 25.3 µM | > 54.6 µM | 22.3 µM | 53.4 µM | 17.6 µM | 34.5 µM | 28.7 µM | > 86.4 µM |
| O=[N+]([O-])c1cc2c(ccc3ccccc32)o1 | 0.413 µM | 3.12 µM | 0.47 µM | 73.9 µM | 0.158 µM | 0.35 µM | 1.4 µM | 5.28 µM | 0.166 µM | 0.487 µM | 0.147 µM | 0.48 µM | 0.426 µM | 1.72 µM | 0.307 µM | 1.8 µM |
| O=C(Nc1ccc(Br)cc1)c1cc(Br)ccc1O | 1.09 µM and 2.5 µM | > 100 µM | 0.683 µM and 0.799 µM | 3.2 µM and 3.89 µM | 0.43 µM and 1.38 µM | 3.23 µM and 5.66 µM | 0.302 µM and 0.455 µM | 2.94 µM | 0.549 µM and 1.09 µM | 4.46 µM and 4.42 µM | 0.61 µM and 1.47 µM | > 64 µM | 0.235 µM and 0.371 µM | 1.07 µM and 2.25 µM | 3.11 µM and 3.38 µM | 16 µM and 39 µM |
| CCOC(=O)c1c(C)n(Cc2ccc(Cl)cc2Cl)c2c1cc(O)c1[nH]c(Cc3ccccc3)nc12 | 2.86 µM | 14 µM | 2.3 µM | 5.27 µM | 5.86 µM | 24.7 µM | 1.53 µM | 3.8 µM | 1.89 µM | 3.66 µM | 3.49 µM | 13.4 µM | 18.6 µM | 34.1 µM | 3.89 µM | 17.3 µM |
| O=C1C=CC(=O)N1c1ccc2ccccc2c1 | 20.3 µM | 43.2 µM | 4.49 µM | 34.9 µM | 16.9 µM | 32.2 µM | 14.4 µM | 53.4 µM | 16.4 µM | 31.3 µM | 4.66 µM | 15.4 µM | 16.1 µM | 29.8 µM | 4.94 µM | 27.8 µM |
| Cc1ccc(-c2csc3ncnc(Nc4cccc(O)c4)c23)cc1 | 41.8 µM | 92.5 µM | 41.6 µM | > 100 µM | 16.7 µM | 33.6 µM | 36.5 µM | > 100 µM | 25.9 µM | 62 µM | – | – | 28 µM | 73 µM | 39.7 µM | > 100 µM |
| O=C(NCCc1nccs1)c1cnc2c(S)cccc2c1 | 3.18 µM | 13.3 µM | 1.14 µM | > 100 µM | 3.85 µM | 53.5 µM | 6.28 µM | 80.5 µM | 2.35 µM | 92.8 µM | 3.36 µM | 14.1 µM | 2.68 µM | 24.1 µM | 4.34 µM | 37 µM |
